Usually IC50 stands for the concentration needed to halve the response being measured. Usually solubility stands for the concentration that dissolves in the medium under given conditions.

We go through 5 compounds from patent US20090137637A1, “Tetrazolyl-Methylene Amino Acid Derivatives” (PFIZER INC., priority 2005, published 2009).

Each structure is given as a SMILES string. ≈ marks a conversion by molar mass, not a printed value. Some results are limits rather than exact numbers.

Data set [1] addresses T1, MMP-8 catalytic domain (Homo sapiens, UniProt P22894).
T1 construct: MMP-8 catalytic domain
Briefly: Thiopeptolide hydrolysis inhibition assay, MMP-8 catalytic domain. It is filed as biochemical. Conditions: thiopeptolide substrate; read-out: MMP-8CD IC50. An excerpt: (§1) In general, the MMP inhibition assays measure the amount by which a test compound reduces the hydrolysis of a thiopeptolide substrate catalyzed by a matrix metalloproteinase enzyme. Such assays are described in detail by Ye et al., in Biochemistry, 1992;31(45):11231-11235, which is incorporated herein by reference.
(§2) Thiopeptolide substrates show virtually no decomposition or hydrolysis at or below neutral pH in the absence of a matrix metalloproteinase enzyme. A typical thiopeptolide substrate commonly utilized for assays is Ac-Pro-Leu-Gly-thioester-Leu-Leu-Gly-OEt. A 100 μL assay mixture will contain 50 mM of N-2-hydroxyethylpiperazine-N′-2-ethanesulfonic acid buffer (“HEPES,” pH 7.0), 10 mM CaCl2, 100 μM thiopeptolide substrate, and 1 mM 5,5′-dithio-bis-(2-nitro-benzoic acid) (DTNB). The thiopeptolide substrate concentration may be varied, for example from 10 to 800 μM to obtain Km and Kcat values. The change in absorbance at 405 nm is monitored on a Thermo Max microplate reader (molecular Devices, Menlo Park, Calif.) at room temperature (22° C.). The calculation of the amount of hydrolysis of the thiopeptolide substrate is based on E412=13600 M^−1 cm^−1 for the DTNB-derived product 3-carboxy-4-nitrothiophenoxide. Assays are carried out with and without matrix metalloproteinase inhibitor compounds, and the amount of hydrolysis is compared for a determination of inhibitory activity of the test compounds.
(§3) Test compounds were evaluated at various concentrations in order to determine their respective IC50 values, the micromolar concentration of compound required to cause a 50% inhibition of catalytic activity of the respective enzyme.
(§4) Certain compounds of formula (I) have been assayed with MMP-1 full-length, MMP-2 full-length, MMP-3 catalytic domain, MMP-7 full-length, MMP-8 catalytic domain, MMP-9 full-length, and MMP-12 catalytic domain.

Data set [2] has as its target T2, MMP-9 full-length (Homo sapiens, UniProt P14780).
T2 construct: MMP-9 full-length
Briefly: Thiopeptolide hydrolysis inhibition assay, MMP-9 full-length. The following applies: thiopeptolide substrate; read-out: MMP-9FL IC50. It is filed as biochemical.
Description: as §1, §2, §3
(§5) The test described above for the inhibition of MMP-13 may also be adapted and used to determine the ability of the compounds of formula (I) to inhibit the matrix metalloproteases MMP-1, MMP-2, MMP-3, MMP-7, MMP-9, MMP-12, MMP-14, and MMP-17.
as §4

Data set [3] concerns the target T3, MMP-3 catalytic domain (Homo sapiens, UniProt P08254).
T3 construct: MMP-3 catalytic domain
Briefly: Thiopeptolide hydrolysis inhibition assay, MMP-3 catalytic domain. It is filed as biochemical. The following applies: thiopeptolide substrate, MES pH 6.0; read-out: MMP-3CD IC50.
Description: as §1, §2, §3
The assay buffer used with MMP-3CD was 50 mM N-morpholinoethane sulfonate (“MES”) at pH 6.0 rather than the HEPES buffer at pH 7.0 described above.
The test described above for the inhibition of MMP-13 may also be adapted and used to determine the ability of the compounds of formula (I) to inhibit the matrix metalloproteases MMP-1, MMP-2, MMP-3, MMP-7, MMP-9, MMP-12, MMP-14, and MMP-17. […]

The target in data set [4] is T4, MMP-7 full-length (Homo sapiens, UniProt P09237).
T4 construct: MMP-7 full-length
T4 sequence (P09237 95-267): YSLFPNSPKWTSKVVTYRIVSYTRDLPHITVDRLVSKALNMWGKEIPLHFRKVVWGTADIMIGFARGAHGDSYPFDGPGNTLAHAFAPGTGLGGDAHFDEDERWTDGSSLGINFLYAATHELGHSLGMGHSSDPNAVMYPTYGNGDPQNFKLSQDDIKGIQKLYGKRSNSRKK
As to the kind of experiment: Thiopeptolide hydrolysis inhibition assay, MMP-7 full-length. The following applies: thiopeptolide substrate; read-out: MMP-7FL IC50. It is filed as biochemical.
Description: as §1, §2, §3, §5, §4

Data set [5] addresses MMP-13 catalytic domain (MMP-13CD) (Homo sapiens, UniProt P45452). Briefly: Thiopeptolide hydrolysis inhibition assay, MMP-13 catalytic domain. It counts as biochemical. The following applies: thiopeptolide substrate, HEPES pH 7.0, 22° C.
Description: as §1
Some of the particular methods described below use the catalytic domain of the MMP-13 enzyme, namely matrix metalloproteinase-13 catalytic domain (“MMP-13CD”), rather than the corresponding full-length enzyme, MMP-13. It has been shown previously by Ye Qi-Zhuang, Hupe D., and Johnson L. (Current Medicinal Chemistry, 1996;3:407418) that inhibitor activity against a catalytic domain of an MMP is predictive of the inhibitor activity against the respective full-length MMP enzyme.
as §2, §3

The target in data set [6] is T5, MMP-1 full-length (Homo sapiens, UniProt P03956).
T5 construct: have been assayed with MMP-1 full-length
T5 sequence (P03956 100-469): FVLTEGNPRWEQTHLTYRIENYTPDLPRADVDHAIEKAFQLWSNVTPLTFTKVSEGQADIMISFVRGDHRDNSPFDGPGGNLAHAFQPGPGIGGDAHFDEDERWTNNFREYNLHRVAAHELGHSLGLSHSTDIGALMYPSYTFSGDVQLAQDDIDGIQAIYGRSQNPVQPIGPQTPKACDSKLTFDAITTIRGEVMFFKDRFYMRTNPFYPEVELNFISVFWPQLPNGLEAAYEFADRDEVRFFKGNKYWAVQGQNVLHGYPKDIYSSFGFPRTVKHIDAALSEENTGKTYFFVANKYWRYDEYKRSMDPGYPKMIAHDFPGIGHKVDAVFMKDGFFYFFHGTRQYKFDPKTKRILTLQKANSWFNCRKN
Briefly: Thiopeptolide hydrolysis inhibition assay, MMP-1 full-length. It is filed as biochemical. The following applies: thiopeptolide substrate; read-out: MMP-1FL IC50.
Description: as §1, §2, §3, §5, §4

The target of data set [7] is T6, MMP-12 catalytic domain (Homo sapiens, UniProt P39900).
T6 construct: MMP-12 catalytic domain
T6 sequence (P39900 106-263 limits assumed, species assumed): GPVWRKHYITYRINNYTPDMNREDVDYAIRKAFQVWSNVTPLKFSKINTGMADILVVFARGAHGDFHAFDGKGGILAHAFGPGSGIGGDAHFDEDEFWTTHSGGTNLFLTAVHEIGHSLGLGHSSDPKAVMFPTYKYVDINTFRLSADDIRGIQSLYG
Briefly: Thiopeptolide hydrolysis inhibition assay, MMP-12 catalytic domain. It counts as biochemical. Conditions: thiopeptolide substrate; read-out: MMP-12CD IC50.
Description: as §1, §2, §3, §5, §4

In data set [8] the target is T7, MMP-2 full-length (Homo sapiens, UniProt P08253).
T7 construct: MMP-2 full-length
T7 sequence (P08253 110-660): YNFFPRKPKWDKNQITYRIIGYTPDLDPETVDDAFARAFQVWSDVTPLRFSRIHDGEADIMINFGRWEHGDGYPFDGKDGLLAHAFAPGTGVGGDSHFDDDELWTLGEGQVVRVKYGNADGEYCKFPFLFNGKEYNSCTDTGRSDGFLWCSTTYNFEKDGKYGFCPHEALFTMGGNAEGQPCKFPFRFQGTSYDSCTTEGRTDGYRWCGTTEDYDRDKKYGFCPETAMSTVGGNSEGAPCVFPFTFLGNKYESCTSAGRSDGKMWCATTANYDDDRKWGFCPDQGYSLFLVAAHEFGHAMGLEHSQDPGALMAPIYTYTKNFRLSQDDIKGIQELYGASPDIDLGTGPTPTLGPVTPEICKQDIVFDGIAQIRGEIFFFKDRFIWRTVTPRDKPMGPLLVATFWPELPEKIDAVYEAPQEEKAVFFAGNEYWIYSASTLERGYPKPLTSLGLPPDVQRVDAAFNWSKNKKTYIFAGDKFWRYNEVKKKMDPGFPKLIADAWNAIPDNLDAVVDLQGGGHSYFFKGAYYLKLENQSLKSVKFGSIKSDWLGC
Briefly: Thiopeptolide hydrolysis inhibition assay, MMP-2 full-length. It counts as biochemical. The following applies: thiopeptolide substrate; read-out: MMP-2FL IC50.
Description: as §1, §2, §3, §5, §4

Data set [9] in a line: Solubility in pH 6.5 aqueous phosphate buffer (Chemical Method 1, PDS solubility). It counts as physicochemical. The following applies: thermodynamic from solid; saturated solution in pH 6.5 aqueous phosphate buffer, 5% glyme, UV-visible absorbance. As for the experimental part: Solubility of a test compound of the present invention refers to solubility of the compound in a solvent mixture containing ethylene glycol dimethylether (“glyme”) and pH 6.5 aqueous phosphate buffer. The solubility was determined by measuring ultraviolet-visible absorbance of a saturated solution of the compound and comparing the absorbance value to absorbance values obtained for four standard solutions of the compound having known concentrations plotted on a 4-point ultraviolet-visible standard curve.
First, a saturated solution of the test compound of the present invention was prepared by adding from about 2- to about 5-mg of the compound to a 96-well plate and adding a volume of pH 6.5 aqueous phosphate buffer, sonicating the mixture for about 10 minutes, and then allowing it to equilibrate overnight (typically 12 to 24 hours). The saturated solution was visually inspected to ensure the presence of particles, and then filtered to give a filtrate of the saturated solution. The filtrate of the saturated solution and a blank (pH 6.5 aqueous phosphate buffer containing no test compound) were then transferred into separate wells in a 96-well UV-transparent disposable plate, and a small amount of glyme was added to each well to give 5% glyme concentration per well.
Standard solutions of the test compound were prepared by dissolving a known amount of the test compound in a known volume of 75/25 volume/volume (“v/v”) glyme/water, and diluting this solution into four different concentrations in 96-well plates with additional 75/25 v/v glyme/water. Then, aliquots from each of the four standard solutions were also transferred to the 96-well UV-transparent disposable plate containing pH 6.5 aqueous phosphate buffer until the glyme concentration in each well was 5%.
The prepared 96-well plate was transferred to a 96-well ultraviolet-visible plate reader, and the wells were scanned over wavelengths of from 220 nm to 350 nm with a step size of 2 nm. The ultraviolet-visible data (i.e., data generated at the same wavelength) were electronically exported to a spreadsheet and absorbance data for the filtrate of the saturated solution measured at one wavelength (i.e., the data that had the best linear fit as calculated by the highest regression coefficient, typically 0.98 or higher) and the corresponding standards absorbance data measured at the same wavelength were plotted as a standard absorbance-concentration curve based on the Lambert-Beer law. The solubility (i.e., saturation concentration) was then back calculated by comparing the absorbance of the filtrate of the saturated solution to the absorbance of the standard solutions of known concentrations at the same wavelength.

T2 sequence (P14780 94-707, species assumed): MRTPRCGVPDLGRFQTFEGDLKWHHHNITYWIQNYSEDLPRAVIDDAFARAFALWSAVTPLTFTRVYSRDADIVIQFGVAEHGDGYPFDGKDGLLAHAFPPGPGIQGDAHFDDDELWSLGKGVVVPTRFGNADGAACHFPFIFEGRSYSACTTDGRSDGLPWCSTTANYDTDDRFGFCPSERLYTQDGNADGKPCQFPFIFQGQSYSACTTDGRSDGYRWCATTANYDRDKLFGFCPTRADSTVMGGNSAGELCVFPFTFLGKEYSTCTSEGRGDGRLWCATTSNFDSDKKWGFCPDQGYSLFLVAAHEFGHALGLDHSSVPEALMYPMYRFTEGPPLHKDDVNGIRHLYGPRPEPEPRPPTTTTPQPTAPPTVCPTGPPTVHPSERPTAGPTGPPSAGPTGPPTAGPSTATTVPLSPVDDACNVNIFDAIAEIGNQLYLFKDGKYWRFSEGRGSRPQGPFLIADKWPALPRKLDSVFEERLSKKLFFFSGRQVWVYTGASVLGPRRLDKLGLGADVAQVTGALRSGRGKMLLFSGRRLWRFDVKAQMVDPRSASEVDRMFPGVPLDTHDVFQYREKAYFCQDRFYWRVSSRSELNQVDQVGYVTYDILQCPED
T3 sequence (P08254 100-272 limits assumed, species assumed): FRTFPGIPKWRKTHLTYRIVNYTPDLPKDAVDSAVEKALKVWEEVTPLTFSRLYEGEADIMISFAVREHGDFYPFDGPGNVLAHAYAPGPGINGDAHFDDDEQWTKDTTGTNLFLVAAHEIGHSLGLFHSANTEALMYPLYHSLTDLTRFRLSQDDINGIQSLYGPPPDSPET
T1 sequence (P22894 100-262 limits assumed, species assumed): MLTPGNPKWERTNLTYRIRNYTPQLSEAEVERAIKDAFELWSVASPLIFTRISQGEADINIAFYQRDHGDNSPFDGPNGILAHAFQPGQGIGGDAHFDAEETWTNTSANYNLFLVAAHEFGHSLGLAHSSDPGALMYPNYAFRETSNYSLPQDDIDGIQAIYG

With `O=C(O)C1CCCN(CCCn2nnc(-c3cccc(C#CCc4ccc(F)cc4)c3)n2)C1` (stereo not drawn) [Example 4], the IC50 was above 100 µM in data set [1]; above 100 µM in data set [2]; above 100 µM in data set [3]; above 100 µM in [4]; 5.2 µM in data set [5]; above 100 µM in [6]. The IC50 in data set [7] and in data set [8] was above 100 µM throughout.
For `Cc1cc(-c2nnn(CC(=O)NCCC(=O)O)n2)cc(C(=O)NCc2ccc(F)cc2)n1` [Example 2, 3-(2-{5-[2-(4-Fluoro-benzylcarbamoyl)-6-methyl-pyridin-4-yl]-tetrazol-2-yl}-acetylamino)-propionic acid], the IC50 was above 100 µM in data set [1]; above 100 µM in data set [2]; above 100 µM in data set [3]; above 100 µM in [4]; 0.039 µM in data set [5]; above 100 µM in data set [6]. The IC50 is above 100 µM in [7] and 75 µM in data set [8]. Also, the solubility in [9] turned out to be 220 µg/mL (≈ 498 µM).
`Cc1cc(-c2nnn(CC(=O)N3CCCC3C(=O)O)n2)cc(C(=O)NCc2ccc(F)cc2)n1` (stereo not drawn) [Example 3] gave an IC50 in data set [5] of 1.5 µM. In data set [9], this compound yielded a solubility of 1200 µg/mL (≈ 2570 µM).
For `Cc1cc(-c2nnn(CC(=O)O)n2)cc(C(=O)NCc2ccc(F)cc2)n1` [Example I2, {5-[2-(4-fluoro-benzylcarbamoyl)-6-methyl-pyridin-4-yl]-tetrazol-2-yl}-acetic acid], in that order: 4.5 µM and 880 µg/mL (≈ 2380 µM).
In the case of `Cc1cc(-c2nnn(CC(=O)NCC(=O)O)n2)cc(C(=O)NCc2ccc(F)cc2)n1` [Example 1, (2-{5-[2-(4-fluoro-benzylcarbamoyl)-6-methyl-pyridin-4-yl]-tetrazol-2-yl}-acetylamino)-acetic acid], the IC50 is above 100 µM in [1]; above 100 µM in data set [2]; above 100 µM in data set [3]; above 100 µM in [4]; 0.041 µM in [5]; above 100 µM in data set [6]. The 50% inhibitory concentration (IC50) in data set [7] and in data set [8] was above 100 µM each time. The solubility in data set [9] was 580 µg/mL (≈ 1360 µM).
